ChEMBL document CHEMBL6078631, “Covalent inhibitors meet epigenetics: New opportunities” (Eur J Med Chem, 2024)

Target: RNA cytosine C(5)-methyltransferase NSUN2 (Homo sapiens) (UniProt Q08J23)
Experiment: Binding affinity to human NSUN2 assessed as ratio of kinact/Ki

Sequence of RNA cytosine C(5)-methyltransferase NSUN2 (Homo sapiens) (Q08J23 whole entry): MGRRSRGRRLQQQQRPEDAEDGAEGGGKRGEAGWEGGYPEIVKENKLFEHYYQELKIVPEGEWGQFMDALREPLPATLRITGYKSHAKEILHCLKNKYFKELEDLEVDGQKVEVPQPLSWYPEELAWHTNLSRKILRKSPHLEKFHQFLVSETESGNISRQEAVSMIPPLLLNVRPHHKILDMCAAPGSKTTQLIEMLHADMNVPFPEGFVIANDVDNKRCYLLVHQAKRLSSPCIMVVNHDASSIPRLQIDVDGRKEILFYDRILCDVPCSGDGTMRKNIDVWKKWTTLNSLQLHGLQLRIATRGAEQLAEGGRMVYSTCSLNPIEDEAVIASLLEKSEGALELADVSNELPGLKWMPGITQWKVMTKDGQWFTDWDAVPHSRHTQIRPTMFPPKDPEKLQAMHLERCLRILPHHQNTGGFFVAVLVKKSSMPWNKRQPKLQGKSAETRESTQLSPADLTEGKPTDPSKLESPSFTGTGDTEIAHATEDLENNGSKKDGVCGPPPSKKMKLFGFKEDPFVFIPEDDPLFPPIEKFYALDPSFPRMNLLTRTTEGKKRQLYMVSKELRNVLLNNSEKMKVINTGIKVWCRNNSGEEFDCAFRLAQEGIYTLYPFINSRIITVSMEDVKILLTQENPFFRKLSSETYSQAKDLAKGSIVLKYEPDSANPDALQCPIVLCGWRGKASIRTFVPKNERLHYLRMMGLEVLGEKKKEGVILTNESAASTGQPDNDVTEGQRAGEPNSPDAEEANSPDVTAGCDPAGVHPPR

`C=CC(=O)N1C[C@H](c2ccc(Br)cc2)[C@@H]1C(=O)Nc1cccc2cccnc12` gave a kinact/Ki of 67 M⁻¹ s⁻¹.
